Data from PMC2784364, “VX-166: a novel potent small molecule caspase inhibitor as a potential therapy for sepsis” (Critical Care, 2009).
“Also recorded” adds a separate entry of the source.

Key:
cathepsin B = molecular target: T1, cathepsin B (Homo sapiens, UniProt P07858); assay: Cathepsin B counter-screen; type: biochemical; settings: highest concentration tested
T1 construct: purchased Merck Biosciences Ltd. (Nottingham, UK)
Method: Active recombinant caspase-1, -3, -4, -7 and -8 were prepared as described previously. Caspase-2 was purchased from Biomol (Exeter, UK), caspase-6 from BD Biosciences (Oxford, UK), caspase-9 from Europa Bioproducts Ltd. (Cambridge, UK) and caspase-10 from Chemicon International Inc. (Harrow, UK). Cathepsin B and granzyme B were purchased from Merck Biosciences Ltd. (Nottingham, UK). Fluorogenic protease substrates were purchased from Bachem Ltd. (St. Helens, UK). All reactions were carried out at 37°C using a Molecular Devices (Wokingham, UK) Gemini plate-reader at 460 nm (excitation wavelength of 390 nm). Caspase inhibition assays were conducted, with minor modifications, as described by Margolin and colleagues. Irreversible kinetics were analysed by calculations of second-order inactivation rate constants (k) using GraphPad (La Jolla, CA, USA) Prism 4.0 software. A larger number for an inactivation rate constant indicates a greater degree of inactivation. To determine the inhibitory effect on cathepsin B, 4.25 nM of the enzyme were added to 250 μM z-RR-AMC in 10 mM 2-morpholino-ethanesulfonic acid pH 6.0, 1 mM DTT, 1 mM EDTA and 0.03% Brij35 in the presence or absence of VX-166 and the reaction monitored continuously over 15 minutes. Granzyme B was assayed, with minor modifications, as described by Thornberry and colleagues. […]

Jurkat cells = assay: TNF-α/cycloheximide induced apoptosis in Jurkat cells, Annexin V; type: cell-based; settings: Human Jurkat cell line/Annexin V, n = 4, read-out: IC50, inhibition of apoptosis
Method: Jurkat cells were obtained from LGC Standards (Teddington, UK) and were grown in RPMI 1640, 10% FCS, 2 mM L-glutamine, 100 U/ml penicillin and 0.1 mg/ml streptomycin (all from Sigma Aldrich Ltd., Poole, UK) at 37°C in 5% CO2/95% humidity. Receptor- or stress-mediated apoptosis (2 × 10^5 cells/ml) was induced by addition of either anti-Fas antibody CH-11 (10 ng/ml, Millipore UK Ltd., Watford, UK), TNF-α (20 ng/ml, R&D Systems, Abingdon, UK) with cycloheximide (112 ng/ml, Sigma Aldrich Ltd., Poole, UK) or staurosporine (350 ng/ml, Sigma Aldrich Ltd., Poole, UK). VX-166 was diluted into DMSO (10 mM), further diluted in media and added at a range of concentrations. Cells were then incubated for 18 hours. Apoptotic cells were then labelled with Cy5-conjugated Annexin-V (BD Biosciences, Oxford, UK) and detected using a FMAT™ 8100 Fluorimetric Microassay Technology Reader (Applied Biosystems, Warrington, UK). For the experiments using anti-Fas antibody, apoptosis was additionally measured using a Cell Death Detection ELISA kit (Roche Diagnostics Ltd., Lewes, UK) following the manufacturer's instructions.

[1] = tested on: IL-2 release from peripheral blood mononuclear cells; assay: IL-2 release from anti-CD3/CD28 stimulated PBMC; type: cell-based, human; settings: at 100 μM
Method: PBMC from healthy donors were isolated as described above. To the wells of a 96-well plate previously coated with 1.5 μg/ml anti-hCD3 (Serotec, Kidlington, UK), 5 × 10^5 cells/ml and 1 μg/ml anti-hCD28 (BD Biosciences, Oxford, UK) were added. Plates were then incubated for 24 hours in the presence or absence of VX-166 or the calcineurin inhibitor FK506 (Merck Biosciences Ltd., Nottingham, UK). IL-2 release into the supernatant was subsequently determined by ELISA (R&D Systems, Abingdon, UK) following the manufacturer's instructions.

[2] = CLP rat, plasma endotoxin by LAL kit; type: in vivo; settings: 20 hours, 25 mg/ml pump, n = 10, P < 0.05
Method: CLP studies were performed in accordance with the National Institutes of Health guidelines for the use of experimental animals and were approved by the Institutional Animal Care and Use Committee of the Feinstein Institute for Medical Research. Adult male Sprague-Dawley rats (weighing 275 to 325 g, Charles River Laboratories, Wilmington, MA, USA) were fasted overnight then anaesthetised with isoflurane. The caecum was exposed via a 2 cm midline incision. It was ligated just distal to the ileocaecal valve, then punctured twice with an 18-gauge needle and gently squeezed to release a small amount of faecal material to ensure patency of the perforation sites before the abdominal incision was closed. Sham-operated rats underwent the same procedure with the exception that the caecum was neither ligated nor punctured. […]
Blood samples were centrifuged at 1500 g for 15 minutes at 4°C, the plasma was removed and stored at -80°C until analysis. Plasma IL-1β levels were determined by ELISA (R&D Systems Inc., Minneapolis, MN, USA) following the manufacturer's instructions. Plasma endotoxin levels were determined using a Limulus amebocyte lysate (LAL) kit (Associates of Cape Cod, Inc., East Falmouth, MA, USA) according to the manufacturer's instruction. […] The optical density was determined at 405 nm using a spectrophotometer. The levels of endotoxin were then calculated and expressed as EU/ml.

Compound: CCC(C(=O)NC(CC(=O)O)C(=O)COc1c(F)c(F)cc(F)c1F)n1cccc(NC(=O)OC)c1=O (stereo not shown) [VX-166]
- inhibition at 50 µM (cathepsin B): 19%
- IC50 (Jurkat cells): 0.12 ± 0.05 µM
- inhibition of T-cell activation in vitro [1]: partial inhibition
- plasma endotoxin level vs vehicle CLP [2]: reduced plasma endotoxin levels; also recorded: reduced the level of endotoxin
